The test system of this experiment is Plasmodium berghei. The experiment in a line: Luciferase/luciferin-expressing antifolate-resistant parasites were used to infect a culture of HepG2 cells that were pre-incubated with compounds. Infected hepatocytes emit light due to the luciferase reaction. Assay results are presented as the percent inhibition of light emission compared to control. […]. It is filed as functional. The note with it: sporozoite; for IC50: read-out: LUCIFERASE INFECTION ASSAY - IC50; for IC90: read-out: LUCIFERASE INFECTION ASSAY - IC90.

IC50 and IC90 data for 53 compounds are collected here from ChEMBL document CHEMBL4483862, “Open-source discovery of chemical leads for next-generation chemoprotective antimalarials” (2018).

A value given as a limit tells only on which side of the number the result lay.

Broadly, the IC50 is the concentration that gives 50% inhibition. A word on the IC90: it is the point of the concentration-response curve where the effect stands at 90%.

Turning to `Cc1cc(C)c(OCC(=O)N2CCCC2c2nc3ccccc3[nH]2)c(C)c1` (stereo unspecified), the IC50 is greater than 10 µM and the IC90 was greater than 10 µM.
Take `CC(C)(C)OC(=O)Nc1ccc(C(=O)NCC2(c3ccccc3)CC2)cc1`: the half-inhibitory concentration (IC50) is greater than 10 µM and the IC90 was greater than 10 µM.
On to `COc1ccc(-c2nc(NC(=O)c3ccc(-n4cccn4)nc3)sc2C)cc1`, for which the concentration for half-maximal inhibition (IC50) was greater than 10 µM and the 90% effect concentration (IC90) is greater than 10 µM.
Turning to `CC1CSC(N(C(=O)COc2ccccc2F)c2ccc(Cl)cc2)=N1` (stereo unspecified), the IC50 is greater than 10 µM and the 90% effect concentration (IC90) was greater than 10 µM.
For `COc1ccc(NC(=O)C(c2ccccc2)N2CCN(C)CC2)cc1Cl` (stereo unspecified), the IC50 is greater than 10 µM and the 90% effect concentration (IC90) is greater than 10 µM.
Take `Cc1nc(-c2ccc(F)cc2)sc1C(=O)N1CCc2sccc2C1`: the IC50 was greater than 10 µM and the IC90 is greater than 10 µM.
`CC1CN(C(=O)c2ccc(CN3C(=O)CNC3=O)cc2)CCO1` (stereo unspecified): the 50% inhibitory concentration (IC50) is greater than 10 µM and the concentration for an effect of 90% (IC90) was greater than 10 µM.
Consider `C=CCNC(=O)CN(C)S(=O)(=O)c1ccc2c(c1)OCCCO2`, for which the half-inhibitory concentration (IC50) is greater than 10 µM and the IC90 was greater than 10 µM.
Take `CC1CCC(NC(=O)c2ccc(S(=O)(=O)Nc3ccccc3)cc2)CC1` (stereo unspecified): the IC50 is greater than 10 µM and the IC90 was greater than 10 µM.
For the compound `N#CCCN(CCC#N)C(=O)CSc1nnc(CCC(N)=O)n1C1CC1`, the IC50 is greater than 10 µM and the IC90 is greater than 10 µM.
On to `COc1cc(OC)c(C(=O)N2CC=C(c3c[nH]c4ccccc34)CC2)cc1OC`, for which the IC50 was greater than 10 µM and the IC90 was greater than 10 µM.
For the compound `O=C1NC2=C(C(=O)N(CCC3=CCCCC3)C2)C(c2ccc(F)cc2)N1` (stereo unspecified), the 50% inhibitory concentration (IC50) is greater than 10 µM and the IC90 was greater than 10 µM.
Take `COc1cc(C(=O)N2CC=C(c3c[nH]c4ccccc34)CC2)ccc1C`: the concentration for half-maximal inhibition (IC50) was greater than 10 µM and the concentration for an effect of 90% (IC90) is greater than 10 µM.
Take `CCc1ccc(C2=NNC(=Nc3ccccc3F)SC2)s1`: the half-maximal inhibitory concentration (IC50) is greater than 10 µM and the 90% effect concentration (IC90) was greater than 10 µM.
For the compound `Cc1ccc(NC(=O)c2cccc(NS(=O)(=O)c3ccc(C)c(F)c3)c2)nc1`, the IC50 is greater than 10 µM and the IC90 was greater than 10 µM.
As for `Cc1cc(Oc2ccc(-c3ccccc3)cc2)nc(C)n1`, the IC50 was greater than 10 µM and the IC90 is greater than 10 µM.
For the compound `Cc1ccc(C(=O)NCCSc2ccc(Cl)cc2)o1`, the IC50 is greater than 10 µM and the IC90 is greater than 10 µM.
For the compound `CC(Sc1cc(C(N)=O)c2ccccc2n1)C(=O)Nc1cccc(F)c1` (stereo unspecified), the 50% inhibitory concentration (IC50) is greater than 10 µM and the IC90 was greater than 10 µM.
On to `CS(=O)(=O)c1ccc(S(=O)(=O)Nc2cccc3c2CCCC3)cc1`, for which the IC50 is greater than 10 µM and the IC90 is greater than 10 µM.
`Cc1cc(C(O)=C2Sc3ccccc3C2=O)c(C)n1C`: the IC50 was greater than 10 µM and the IC90 was greater than 10 µM.
As for `COc1ccc(C2CCCN2Cc2ccc(C(N)=O)cc2)c(OC)c1` (stereo unspecified), the half-inhibitory concentration (IC50) is greater than 10 µM and the IC90 was greater than 10 µM.
With `CCOc1ccc(OCCC(=O)NCc2cccc(C(F)(F)F)c2)cc1`, the 50% inhibitory concentration (IC50) is greater than 10 µM and the IC90 was greater than 10 µM.
With `CCC(=O)c1ccc(OCC(=O)N(C)C2CCc3ccccc32)cc1` (stereo unspecified), the IC50 was greater than 10 µM and the IC90 was greater than 10 µM.
For the compound `Cc1ccc(C)c(OCC(O)Cn2nc(C)c3ccccc3c2=O)c1C` (stereo unspecified), the concentration for half-maximal inhibition (IC50) was greater than 10 µM and the 90% effect concentration (IC90) is greater than 10 µM.
Take `CC(=O)c1ccc(S(=O)(=O)N(Cc2c(F)cccc2Cl)C2CC2)cc1`: the IC50 was greater than 10 µM and the IC90 was greater than 10 µM.
With `Cc1cccc(C2NC(=O)NC3=C2C(=O)N(Cc2ccc(F)cc2)C3)c1` (stereo unspecified), the IC50 was greater than 10 µM and the IC90 is greater than 10 µM.
In the case of `Cc1cc(OCC(=O)N(C)Cc2nc3ccsc3c(=O)[nH]2)ccc1C(C)C`, the IC50 is greater than 10 µM and the IC90 was greater than 10 µM.
For the compound `Cc1noc(C)c1CSc1nc(C(C)(C)C)nc2c1c(=O)n(C)c(=O)n2C`, the concentration for half-maximal inhibition (IC50) is greater than 10 µM and the IC90 was greater than 10 µM.
Regarding `CC(C)n1cc(C(=O)c2ccccc2O)cc1-c1nc2ccccc2o1`, the concentration for half-maximal inhibition (IC50) is greater than 10 µM and the IC90 was greater than 10 µM.
`CC(C)Cn1c(=O)n(C)c(=O)c2c(SCC#N)nc(CC(C)(C)C)nc21`: the IC50 is greater than 10 µM and the IC90 is greater than 10 µM.
For `Cc1ccc(C(=O)O)cc1NS(C)(=O)=O`, the 50% inhibitory concentration (IC50) was greater than 10 µM and the 90% effect concentration (IC90) is greater than 10 µM.
Take `O=C(c1ccoc1)N1CCN(Cc2sc3ccccc3c2Cl)CC1`: the 50% inhibitory concentration (IC50) is greater than 10 µM and the 90% effect concentration (IC90) is greater than 10 µM.
With `CC(C)(C)c1ccccc1NC(=O)CCC(=O)N1CCC(c2ccccc2)=N1`, the half-inhibitory concentration (IC50) is greater than 10 µM and the concentration for an effect of 90% (IC90) is greater than 10 µM.
For the compound `CCCc1ccc(C(NC(=O)Cn2ccc(=O)[nH]c2=O)c2cccs2)cc1` (stereo unspecified), the 50% inhibitory concentration (IC50) was greater than 10 µM and the IC90 is greater than 10 µM.
Consider `Cc1noc2nc(C3CC3)cc(C(=O)N3CCC(C(N)=O)CC3)c12`, for which the IC50 is greater than 10 µM and the IC90 was greater than 10 µM.
On to `CC(C)C1NC(=O)N(CCCOc2ccc(C(C)(C)C)cc2)C1=O` (stereo unspecified), for which the IC50 amounted to 9.61 µM and the 90% effect concentration (IC90) is greater than 10 µM.
For `O=C(NCC1(c2ccccc2)CCC1)c1ccc(Cn2nnc3ccccc32)cc1` the same measures were greater than 10 µM and greater than 10 µM.
For `Cc1cccc(C2NC(=O)NC3=C2C(=O)N(CCc2ccccc2)C3)c1` (stereo unspecified) the same measures were greater than 10 µM and greater than 10 µM.
Taken in the same sequence, the figures for `COc1ccccc1N(C(=O)c1cccc(C#N)c1)c1nc2ccccc2s1` were greater than 10 µM and greater than 10 µM.
Take `COc1ccc(C)cc1C(C)NC(=O)c1cc2ccsc2[nH]1` (stereo unspecified): the IC50 is greater than 10 µM and the 90% effect concentration (IC90) is greater than 10 µM.
In the case of `O=S(=O)(Nc1ccc(S(=O)(=O)NC2CC2)cc1)c1cc(F)cc(F)c1`, the IC50 was greater than 10 µM and the IC90 was greater than 10 µM.
As for `C=CCNS(=O)(=O)c1ccc(C(=O)NCc2ccccc2OC(F)F)cc1`, the half-maximal inhibitory concentration (IC50) is greater than 10 µM and the IC90 is greater than 10 µM.
For the compound `CN(C(=O)CN1CCc2ccccc2C1)C1(C#N)CCCCC1`, the IC50 was greater than 10 µM and the IC90 is greater than 10 µM.
As for `COc1ccc(OC)c(CSc2nnc(Nc3cccc(F)c3)s2)c1`, the IC50 is greater than 10 µM and the IC90 is greater than 10 µM.
For `O=c1cc(N2CCN(CCOc3ccccc3Cl)CC2)nc2ccccn12`, the half-inhibitory concentration (IC50) was greater than 10 µM and the IC90 was greater than 10 µM.
With `CCc1ccc2nc(NC(=O)CN(C)C(=O)c3ccco3)sc2c1`, the half-maximal inhibitory concentration (IC50) was greater than 10 µM and the IC90 is greater than 10 µM.
As for `O=C(Cc1cc(Cl)c2c(c1)OCCO2)NC(c1ccccc1)c1cccs1` (stereo unspecified), the IC50 was greater than 10 µM and the IC90 was greater than 10 µM.
As to `CCc1ccccc1NCC(=O)Nc1cc(Cl)ccc1-n1cncn1`, the IC50 was greater than 10 µM and the IC90 is greater than 10 µM.
As for `CCc1cccc(NC(=O)c2cc(C3CC3)nc3c2c(C)nn3C)c1`, the IC50 was greater than 10 µM and the 90% effect concentration (IC90) was greater than 10 µM.
Take `CC(=O)N1CCc2cc(NC(=O)CNc3ccc(C)cc3C)ccc21`: the IC50 was greater than 10 µM and the 90% effect concentration (IC90) was greater than 10 µM.
Consider `Cc1cccc(OCc2nnc(SCC(=O)c3ccc4c(c3)CCC4)o2)c1`, for which the half-inhibitory concentration (IC50) was greater than 10 µM and the concentration for an effect of 90% (IC90) is greater than 10 µM.
`CC(C)c1cccc(Nc2ccc3nnc(C(F)(F)F)n3n2)c1`: the half-inhibitory concentration (IC50) is greater than 10 µM and the concentration for an effect of 90% (IC90) was greater than 10 µM.
For `O=C(Cn1nc(-c2ccco2)oc1=O)N(Cc1ccccc1)c1ccccc1`, the half-inhibitory concentration (IC50) was greater than 10 µM and the IC90 was greater than 10 µM.
